Converted amounts (≈) assume the structure as drawn.

For 52 compounds, MIC90, IC50 and selectivity ratio results are on record in ChEMBL document CHEMBL4043063, “Anti-tuberculosis activity and structure-activity relationships of oxygenated tricyclic carbazole alkaloids and synthetic derivatives” (Bioorg Med Chem, 2017).

Data set [1] relates to Mycobacterium tuberculosis. Briefly: Antitubercular activity against Mycobacterium tuberculosis H37Rv by microplate alamar blue assay. Format: functional.
A further data set has as its system Vero. Description: Cytotoxicity against African green monkey Vero cells assessed as reduction in cell viability after 72 hrs by tetrazolium dye assay. Format: cell-based. The following applies: Chlorocebus sabaeus.
A short description of data set [2]: Selectivity index, ratio of IC50 for African green monkey Vero cells to MIC90 for Mycobacterium tuberculosis H37Rv. The data set is classed as toxicity. The following applies: read-out: Selectivity Index.

With `Cc1cc2c(cc1O)[nH]c1ccccc12`, the MIC90 in data set [1] was 41.5 µM (≈ 8.19 µg/mL).
The compound `COc1ccc2c([nH]c3cc(O)c(C)cc32)c1C=O` came in with an MIC90 in data set [1] above 50 µM.
Turning to `COc1ccc2[nH]c3c(O)cc(C=O)cc3c2c1`, the MIC90 in data set [1] came to 6.9 µM (≈ 1.66 µg/mL). In the data set with Vero, the IC50 is above 50 µM. The selectivity ratio in data set [2] was above 7.2.
The compound `O=C(O)c1cc2c([nH]c3ccccc32)c(-c2c[nH]c3ccccc23)c1O` showed an MIC90 in data set [1] above 50 µM.
With `CCCCCCCc1c(C)c(OC)c(OC)c2c1[nH]c1ccccc12`, the MIC90 in data set [1] was 6.2 µM (≈ 2.1 µg/mL). In the data set on Vero, the IC50 was above 50 µM. For the same compound, the selectivity ratio in data set [2] was above 8.1.
For the compound `COc1ccc2[nH]c3c(OC)cc(C)cc3c2c1`, the MIC90 in data set [1] came to 45.1 µM (≈ 10.9 µg/mL).
Still for that read-out and setting: the same measure for `Cc1ccc(S(=O)(=O)Oc2cc(C)cc3c2[nH]c2cc(O)ccc23)cc1`: 19.7 µM (≈ 7.24 µg/mL); for `COC(=O)c1cc2c(cc1OC)[nH]c1ccc(OC)cc12`: 24.4 µM (≈ 6.96 µg/mL).
Still for that read-out and setting: to `COC(=O)c1cc2c(cc1O)[nH]c1ccc(O)cc12` belongs 29.1 µM (≈ 7.49 µg/mL); to `COc1cc2[nH]c3cc(O)ccc3c2cc1C=O`, 36.7 µM (≈ 8.85 µg/mL); to `COc1cc2[nH]c3c(C=O)c(OC)ccc3c2cc1C`, above 50 µM.
Still for that read-out and setting: to `Cc1cc2c(cc1OCc1ccccc1)[nH]c1ccccc12` belongs above 50 µM.
Consider `O=Cc1cc2c(cc1O)[nH]c1c(O)cccc12`, for which, in data set [1], the MIC90 was found to be 3.7 µM (≈ 0.841 µg/mL). The half-maximal inhibitory concentration (IC50) with Vero is above 50 µM. For the same compound, the selectivity ratio in data set [2] is above 13.
With `COc1cccc2c1[nH]c1cc(O)c(C)cc12`, the MIC90 in data set [1] was above 50 µM.
Same read-out and setting: the same measure for `C#CC(C)(C)Oc1ccc2c(c1)[nH]c1c(OS(=O)(=O)c3ccc(C)cc3)cc(C)cc12`: 20.8 µM (≈ 9.02 µg/mL); for `COC(=O)c1cc2c(cc1O)[nH]c1cc(OC)ccc12`: 47.8 µM (≈ 13 µg/mL).
Same read-out and setting: to `COc1ccc2c([nH]c3c(OC)cc(C)cc32)c1OC` belongs 46.9 µM (≈ 12.7 µg/mL); to `CC(C)=CCc1ccc2[nH]c3ccccc3c2c1`, 22.6 µM (≈ 5.32 µg/mL).
On to `COc1ccc2[nH]c3cc(O)c(C)cc3c2c1`, for which the MIC90 in data set [1] is 1.5 µM (≈ 0.341 µg/mL). In addition, the 50% inhibitory concentration (IC50) in the data set with Vero is above 50 µM. For the same compound, in data set [2], the selectivity ratio was above 33.
In turn, `COc1cc2[nH]c3ccccc3c2cc1C(=O)O` returned an MIC90 in data set [1] above 50 µM.
Same read-out and setting: to `COc1ccc2[nH]c3c(OC)cc(C=O)cc3c2c1` belongs above 50 µM.
On the same count and under the same terms, the same measure for `CC(C)=CCc1c(O)ccc2c1[nH]c1c(OS(=O)(=O)c3ccc(C)cc3)cc(C)cc12`: 19.4 µM (≈ 8.45 µg/mL).
`CC(C)=CC(=O)Oc1ccc2c(c1)[nH]c1c(OS(=O)(=O)c3ccc(C)cc3)cc(C)cc12`: the MIC90 in data set [1] was determined as 6.2 µM (≈ 2.79 µg/mL). Also, the IC50 in the data set on Vero is above 50 µM. In addition, the selectivity ratio in data set [2] was above 8.1.
The like results for `COC(=O)c1cc2c([nH]c3ccccc32)c(-c2cn(S(=O)(=O)c3ccccc3)c3ccccc23)c1O` were, in that order, 2.9 µM (≈ 1.44 µg/mL), above 50 µM and above 17.2.
Compound `CC(C)=CCC/C(C)=C/Cc1c(O)c(C=O)cc2c1[nH]c1ccccc12` had an MIC90 in data set [1] of 24.1 µM (≈ 8.37 µg/mL).
Same read-out and setting: the same measure for `O=C(O)c1cc2c(cc1O)[nH]c1ccc(O)cc12`: above 50 µM; for `COc1ccc2c([nH]c3c(O)cc(C)cc32)c1CC=C(C)C`: 23.1 µM (≈ 6.82 µg/mL).
For `Cc1cc2c(cc1OCc1ccccc1)[nH]c1c(O)cccc12`, the MIC90 in data set [1] turned out to be 11.8 µM (≈ 3.58 µg/mL). For the same compound, in the data set with Vero, the 50% inhibitory concentration (IC50) amounted to 33.7 µM. The selectivity ratio in data set [2] was 2.9.
For the compound `COc1ccc2c(c1)[nH]c1c(Cc3ccccc3)c(O)c(C=O)cc12`, the MIC90 in data set [1] was 14.4 µM (≈ 4.77 µg/mL). In the data set on Vero, the half-inhibitory concentration (IC50) turned out to be 74.1 µM. For the same compound, the selectivity ratio in data set [2] came out at 5.1.
The like results for `COc1cccc2[nH]c3cc(OCc4ccccc4)c(C)cc3c12` were, in that order, 9.3 µM (≈ 2.95 µg/mL), above 50 µM and above 5.4.
The compound `COC(=O)c1cc2c([nH]c3ccccc32)c(I)c1O` gave an MIC90 in data set [1] of 24.6 µM (≈ 9.03 µg/mL).
On the same count and under the same terms, to `COc1cccc2c1[nH]c1cc(O)c(C=O)cc12` belongs 29.3 µM (≈ 7.07 µg/mL).
Take `COC(=O)c1cc(OC)c2[nH]c3ccc(OC)cc3c2c1`: in data set [1], the MIC90 was found to be 46.7 µM (≈ 13.3 µg/mL).
Turning to `CC(C)=CCC/C(C)=C/Cc1c(O)ccc2c1[nH]c1c(OS(=O)(=O)c3ccc(C)cc3)cc(C)cc12`, the MIC90 in data set [1] was 20.5 µM (≈ 10.3 µg/mL).
`C=CC(C)(C)c1ccc2[nH]c3ccccc3c2c1`: the MIC90 in data set [1] turned out to be 11 µM (≈ 2.59 µg/mL). Further, the half-inhibitory concentration (IC50) with Vero was above 50 µM. Further, the selectivity ratio in data set [2] is above 4.5.
Taken in the same sequence, the figures for `COc1ccc2c([nH]c3cc(O)c(C=O)cc32)c1C=O` were 2.8 µM (≈ 0.754 µg/mL), 47.1 µM and 16.8.
In turn, `CC(C)=CCc1c(O)ccc2c1[nH]c1cc(O)c(C)cc12` returned an MIC90 in data set [1] of 29.4 µM (≈ 8.27 µg/mL).
In data set [1], `CC(C)=CCc1c(O)c(C)cc2c1[nH]c1ccccc12` yielded an MIC90 of 11.1 µM (≈ 2.95 µg/mL). In addition, the half-maximal inhibitory concentration (IC50) with Vero was above 50 µM. Also, the selectivity ratio in data set [2] is above 4.5.
As for `COc1ccc2c(c1)[nH]c1cc(O)c(C=O)cc12`, in data set [1], the MIC90 was 24.3 µM (≈ 5.86 µg/mL).
On the same count and under the same terms, the same measure for `COc1ccc2c(c1)[nH]c1c(CC=C(C)C)c(O)c(C=O)cc12`: 20.6 µM (≈ 6.37 µg/mL).
`COc1ccc2c([nH]c3cc(O)c(C)cc32)c1CC=C(C)C`: the MIC90 in data set [1] was found to be 11.9 µM (≈ 3.52 µg/mL). Further, the IC50 with Vero was above 50 µM. In data set [2], the selectivity ratio is above 4.2.
For the compound `COc1ccc2c(c1)[nH]c1cc(O)c(C)cc12`, the MIC90 in data set [1] is above 50 µM.
For the compound `COC1=C(C)C(=O)c2[nH]c3ccccc3c2C1=O` [3-METHOXY-2-METHYLCARBAZOLE-1,4-QUINONE], the MIC90 in data set [1] came to 4 µM (≈ 0.965 µg/mL). For the same compound, the half-maximal inhibitory concentration (IC50) in the data set on Vero is above 50 µM. In data set [2], the selectivity ratio was above 12.5.
For the compound `COc1c(C)c(C[C@@H](C)O)c2[nH]c3ccc(CC=C(C)C)cc3c2c1O` [(R)-(-)-NEOCARAZOSTATIN B], the MIC90 in data set [1] turned out to be 34.5 µM (≈ 12.2 µg/mL).
For the compound `COC(=O)c1cc2c(cc1OC)[nH]c1ccccc12` [CLAUSINE L], the MIC90 in data set [1] was above 50 µM.
Still for that read-out and setting: to `COc1cc2[nH]c3ccccc3c2cc1C=O` [GLYCOSININE] belongs 39.6 µM (≈ 8.92 µg/mL); to `COc1ccc2[nH]c3cc(OC)c(C=O)cc3c2c1` [GLYCOZOLIDAL], above 50 µM.
The same measure, in the same setting: to `COc1ccc2[nH]c3cc(OC)c(C)cc3c2c1` [GLYCOZOLIDINE] belongs above 50 µM; to `CC(C)=CCc1c(O)c(C=O)cc2c1[nH]c1ccccc12` [HEPTAPHYLLINE], above 50 µM.
Consider `NNC(=O)c1ccncc1` [ISONIAZID], for which the MIC90 in data set [1] stood at 0.24 µM (≈ 0.0329 µg/mL). The 50% inhibitory concentration (IC50) in the data set with Vero is above 50 µM. Moreover, in data set [2], the selectivity ratio is above 208.
In turn, `COC(=O)c1cc2c(cc1O)[nH]c1ccccc12` [MUKONIDINE] had an MIC90 in data set [1] of 23.3 µM (≈ 5.62 µg/mL).
In data set [1], `CO[C@H]1/C=C/O[C@@]2(C)Oc3c(C)c(O)c4c(O)c(c(/C=N/N5CCN(C)CC5)c(O)c4c3C2=O)NC(=O)/C(C)=C\C=C\[C@H](C)[C@H](O)[C@@H](C)[C@@H](O)[C@@H](C)[C@H](OC(C)=O)[C@@H]1C` [RIFAMPIN] had an MIC90 of 0.02 µM (≈ 0.0165 µg/mL). For the same compound, in the data set on Vero, the IC50 is above 50 µM. Also, the selectivity ratio in data set [2] is above 2500.

A word on the MIC90: it is an inhibitory concentration at the 90% level, which refers to growth in some studies and to a panel of isolates in others. Broadly, the IC50 is the concentration at which inhibition is half-maximal.
